Values after ≈ are worked out from the molar mass of the structure shown. Peptide text beside a SMILES is read from it.
Experiments:
P. aeruginosa 15442 = format: cell-based, Pseudomonas aeruginosa
Protocol: (§1) MICs were determined to evaluate the antimicrobial activities of the peptides. The bacteria were inoculated into Mueller‐Hinton broth (MHB) medium in advance and placed in a shaker at 37°C until the logarithmic growth phase. The optical density value at OD600 of the bacterial suspension was adjusted to 0.4, and then diluted 1000 times with sterile MHB medium. Subsequently, the peptides with concentrations of 0.25–128 μM were prepared using bovine serum albumin (BSA) solution (0.2% BSA and 0.01% acetic acid) as the solvent on a 96‐well plate. Different concentrations of peptides and bacterial liquids were mixed in equal volumes. MHB medium containing bacteria was used as a positive control. MHB medium without bacteria was used as a negative control. Then, the mixture of peptides and bacteria was cultured in an incubator at 37°C for 18–24 h. The optical density of each well was measured at 492 nm using a microplate reader. The lowest drug concentration corresponding to a culture mixture with an optical density of less than 0.1 is the MIC of the peptide. The assay was repeated three times in duplicate.

P. aeruginosa 27853 = format: cell-based, Pseudomonas aeruginosa
Protocol: as §1

S. aureus 6538 = format: cell-based, Staphylococcus aureus
Protocol: as §1

S. aureus 1882 = format: cell-based, Staphylococcus aureus
Protocol: as §1

red blood cells = format: cell-based, pig
Protocol: A series of parameters such as charge number, hydrophobicity, sequence length, and amphipathicity can affect the hemolytic activity of peptides against red blood cells. The minimal hemolytic concentration (MHC) refers to the minimum concentration that causes hemolysis of 10 % of red blood cells, and is often used to evaluate the hemolytic activity of the peptides. Except for SFK3, the percentage of hemolysis at 128 μM was below 5% for all peptides. Hemolysis of the erythrocytes occurred after incubation with Triton X‐100, with complete fragmentation of the erythrocytes and a bright red color of the reaction system (Figure 2B,C and Table S5).
The hemolytic activity of the peptide was calculated by measuring the level of […] released from mammalian red blood cell lysis induced by the peptide, [44]. Fresh porcine blood was collected from the jugular vein and washed with PBS three times, and red blood cells were collected. A red blood cell suspension of 10% (v/v) concentration was prepared in 10 mM PBS (pH = 7.4). After mixing with different concentrations of peptides in equal volume, they were incubated at 37°C for 2 h. Red blood cells treated with PBS and 0.1% Triton X‐100 were used as negative and positive controls, respectively. The assay was repeated three times. After the sample was centrifuged, the supernatant was transferred to a new 96‐well plate, and the optical density at 570 nm was measured using a microplate reader. Hemolysis was calculated as follows: Hemolytic activity(%)=ODtest sample−ODnegative control/ODpositive control−ODnegative control×100%

E. coli K88 = format: cell-based, Escherichia coli; conditions: microbroth dilution, MHB, 37°C, 18–24 h, OD492 < 0.1; repeated three times in duplicate
Protocol: as §1

E. coli K99 = format: cell-based, Escherichia coli; conditions: microbroth dilution, MHB, 37°C, 18–24 h, OD492 < 0.1; repeated three times in duplicate
Protocol: as §1

E. coli 25922 = format: cell-based, Escherichia coli
Protocol: as §1

S. epidermidis 12228 = format: cell-based, Staphylococcus epidermidis
Protocol: as §1

S. aureus ATCC 6538 = assay: Drug resistance assay, continuous passaging at sub-MIC; format: cell-based, Staphylococcus aureus
Protocol: The fold change in the MIC of peptides and […] against S. aureus ATCC 6538 was measured using the continuous passaging method to evaluate the development of drug resistance. The MIC values of the peptide and vancomycin against S. aureus ATCC 6538 were determined according to the above method, and the solutions in the sub‐MIC wells were aspirated and transferred to a fresh MHB medium for the next round of MIC determination. The procedure lasted for 30 days.

Compound: CC[C@H](C)[C@H](NC(=O)[C@H](CCCNC(=N)N)NC(=O)[C@H](CO)NC(=O)[C@H](CC(C)C)NC(=O)[C@H](Cc1ccccc1)NC(=O)[C@H](Cc1ccccc1)NC(=O)[C@H](Cc1ccccc1)NC(=O)CNC(=O)CNC(=O)CNC(=O)[C@H](CO)NC(=O)[C@H](C)NC(=O)[C@H](CCCNC(=N)N)NC(=O)[C@@H](NC(=O)[C@H](Cc1c[nH]c2ccccc12)NC(=O)[C@H](Cc1ccc(O)cc1)NC(=O)[C@@H](N)CO)C(C)C)C(=O)N[C@@H](Cc1ccccc1)C(=O)N[C@@H](CCCCN)C(=O)N[C@@H](CCCCN)C(=O)N[C@@H](CCCCN)C(N)=O [SFK3] (H-SYWVRASGGGFFFLSRIFKKK-NH2)
- MIC P. aeruginosa 15442 (P. aeruginosa 15442): >64 µM
- MIC P. aeruginosa 27853 (P. aeruginosa 27853): >64 µM
- MIC S. aureus 6538 (S. aureus 6538): 2 µM (≈ 4.96 µg/mL)
- MIC S. aureus 1882 (S. aureus 1882): 1 µM (≈ 2.48 µg/mL)
- MHC (red blood cells): >128 μM
- MIC E. coli K88 (E. coli K88): 16 µM (≈ 39.7 µg/mL)
- MIC E. coli K99 (E. coli K99): 16 µM (≈ 39.7 µg/mL)
- MIC E. coli 25922 (E. coli 25922): >64 µM
- MIC S. epidermidis 12228 (S. epidermidis 12228): >64 µM

Compound: CC[C@H](C)[C@H](NC(=O)[C@H](CCCNC(=N)N)NC(=O)[C@H](CO)NC(=O)[C@H](CC(C)C)NC(=O)[C@H](Cc1ccccc1)NC(=O)[C@H](Cc1ccccc1)NC(=O)[C@H](Cc1ccccc1)NC(=O)CNC(=O)CNC(=O)CNC(=O)[C@H](CO)NC(=O)[C@H](C)NC(=O)[C@H](CCCNC(=N)N)NC(=O)[C@@H](NC(=O)[C@H](Cc1c[nH]c2ccccc12)NC(=O)[C@H](Cc1ccc(O)cc1)NC(=O)[C@@H](N)CO)C(C)C)C(=O)N[C@@H](Cc1ccccc1)C(=O)N[C@@H](CCCCN)C(N)=O [SFK] (H-SYWVRASGGGFFFLSRIFK-NH2)
- MIC P. aeruginosa 15442 (P. aeruginosa 15442): >64 µM
- MIC P. aeruginosa 27853 (P. aeruginosa 27853): >64 µM
- MIC S. aureus 6538 (S. aureus 6538): 4 µM (≈ 8.9 µg/mL)
- MIC S. aureus 1882 (S. aureus 1882): 2 µM (≈ 4.45 µg/mL)
- MHC (red blood cells): >128 μM
- MIC E. coli K88 (E. coli K88): 32 µM (≈ 71.2 µg/mL)
- MIC E. coli K99 (E. coli K99): 64 µM (≈ 142 µg/mL)
- MIC E. coli 25922 (E. coli 25922): >64 µM
- MIC S. epidermidis 12228 (S. epidermidis 12228): >64 µM

Compound: CC[C@H](C)[C@H](NC(=O)[C@H](CCCNC(=N)N)NC(=O)[C@H](CO)NC(=O)[C@H](CC(C)C)NC(=O)[C@H](Cc1ccccc1)NC(=O)[C@H](Cc1ccccc1)NC(=O)[C@H](Cc1ccccc1)NC(=O)CNC(=O)CNC(=O)CNC(=O)[C@H](CO)NC(=O)[C@H](C)NC(=O)[C@H](CCCNC(=N)N)NC(=O)[C@@H](NC(=O)[C@H](Cc1c[nH]c2ccccc12)NC(=O)[C@H](Cc1ccc(O)cc1)NC(=O)[C@@H](N)CO)C(C)C)C(=O)N[C@@H](Cc1ccccc1)C(=O)N[C@@H](CCCNC(=N)N)C(=O)N[C@@H](CCCNC(=N)N)C(N)=O [SFR2] (H-SYWVRASGGGFFFLSRIFRR-NH2)
- MIC P. aeruginosa 15442 (P. aeruginosa 15442): >64 µM
- MIC P. aeruginosa 27853 (P. aeruginosa 27853): >64 µM
- MIC S. aureus 6538 (S. aureus 6538): 4 µM (≈ 9.64 µg/mL)
- MIC S. aureus 1882 (S. aureus 1882): 1 µM (≈ 2.41 µg/mL)
- MHC (red blood cells): >128 μM
- MIC E. coli K88 (E. coli K88): 32 µM (≈ 77.1 µg/mL)
- MIC E. coli K99 (E. coli K99): 64 µM (≈ 154 µg/mL)
- MIC E. coli 25922 (E. coli 25922): >64 µM
- MIC S. epidermidis 12228 (S. epidermidis 12228): >64 µM

Compound: CC[C@H](C)[C@H](NC(=O)[C@H](CCCNC(=N)N)NC(=O)[C@H](CO)NC(=O)[C@H](CC(C)C)NC(=O)[C@H](Cc1ccccc1)NC(=O)[C@H](Cc1ccccc1)NC(=O)[C@H](Cc1ccccc1)NC(=O)CNC(=O)CNC(=O)CNC(=O)[C@H](CO)NC(=O)[C@H](C)NC(=O)[C@H](CCCNC(=N)N)NC(=O)[C@@H](NC(=O)[C@H](Cc1c[nH]c2ccccc12)NC(=O)[C@H](Cc1ccc(O)cc1)NC(=O)[C@@H](N)CO)C(C)C)C(=O)N[C@@H](Cc1ccccc1)C(=O)N[C@@H](CCCNC(=N)N)C(=O)N[C@@H](CCCNC(=N)N)C(=O)N[C@@H](CCCNC(=N)N)C(N)=O [SFR3] (H-SYWVRASGGGFFFLSRIFRRR-NH2)
- MIC P. aeruginosa 15442 (P. aeruginosa 15442): >64 µM
- MIC P. aeruginosa 27853 (P. aeruginosa 27853): >64 µM
- MIC S. aureus 6538 (S. aureus 6538): 16 µM (≈ 41 µg/mL)
- MIC S. aureus 1882 (S. aureus 1882): 4 µM (≈ 10.3 µg/mL)
- MHC (red blood cells): >128 μM
- MIC E. coli K88 (E. coli K88): 32 µM (≈ 82.1 µg/mL)
- MIC E. coli K99 (E. coli K99): >64 µM
- MIC E. coli 25922 (E. coli 25922): >64 µM
- MIC S. epidermidis 12228 (S. epidermidis 12228): >64 µM

Compound: CC[C@H](C)[C@H](NC(=O)[C@H](CCCNC(=N)N)NC(=O)[C@H](CO)NC(=O)[C@H](CC(C)C)NC(=O)[C@H](Cc1ccccc1)NC(=O)[C@H](Cc1ccccc1)NC(=O)[C@H](Cc1ccccc1)NC(=O)CNC(=O)CNC(=O)CNC(=O)[C@H](CO)NC(=O)[C@H](C)NC(=O)[C@H](CCCNC(=N)N)NC(=O)[C@@H](NC(=O)[C@H](Cc1c[nH]c2ccccc12)NC(=O)[C@H](Cc1ccc(O)cc1)NC(=O)[C@@H](N)CO)C(C)C)C(=O)N[C@@H](Cc1ccccc1)C(=O)N[C@@H](CCCNC(=N)N)C(N)=O [SFR] (H-SYWVRASGGGFFFLSRIFR-NH2)
- MIC P. aeruginosa 15442 (P. aeruginosa 15442): >64 µM
- MIC P. aeruginosa 27853 (P. aeruginosa 27853): >64 µM
- MIC S. aureus 6538 (S. aureus 6538): 2 µM (≈ 4.51 µg/mL)
- MIC S. aureus 1882 (S. aureus 1882): 2 µM (≈ 4.51 µg/mL)
- MHC (red blood cells): >128 μM
- MIC E. coli K88 (E. coli K88): 32 µM (≈ 72.1 µg/mL)
- MIC E. coli K99 (E. coli K99): 32 µM (≈ 72.1 µg/mL)
- MIC E. coli 25922 (E. coli 25922): >64 µM
- MIC S. epidermidis 12228 (S. epidermidis 12228): >64 µM

Compound: CC[C@H](C)[C@H](NC(=O)[C@H](CCCNC(=N)N)NC(=O)[C@H](CO)NC(=O)[C@H](CC(C)C)NC(=O)[C@H](Cc1ccccc1)NC(=O)[C@H](Cc1ccccc1)NC(=O)[C@H](Cc1ccccc1)NC(=O)CNC(=O)CNC(=O)CNC(=O)[C@H](CO)NC(=O)[C@H](C)NC(=O)[C@H](CCCNC(=N)N)NC(=O)[C@@H](NC(=O)[C@H](Cc1c[nH]c2ccccc12)NC(=O)[C@H](Cc1ccc(O)cc1)NC(=O)[C@@H](N)CO)C(C)C)C(=O)N[C@@H](Cc1ccccc1)C(N)=O [SF] (H-SYWVRASGGGFFFLSRIF-NH2)
- MIC P. aeruginosa 15442 (P. aeruginosa 15442): >64 µM
- MIC P. aeruginosa 27853 (P. aeruginosa 27853): >64 µM
- MIC S. aureus 6538 (S. aureus 6538): 16 µM (≈ 33.5 µg/mL)
- MIC S. aureus 1882 (S. aureus 1882): 2 µM (≈ 4.19 µg/mL)
- MHC (red blood cells): >128 μM
- MIC E. coli K88 (E. coli K88): >64 µM
- MIC E. coli K99 (E. coli K99): >64 µM
- MIC E. coli 25922 (E. coli 25922): >64 µM
- MIC S. epidermidis 12228 (S. epidermidis 12228): >64 µM

Compound: O=C(O)c1cn(C2CC2)c2cc(N3CCNCC3)c(F)cc2c1=O [ciprofloxacin]
- Fold increase of MIC compared with the initial value (S. aureus ATCC 6538; Day 9, sub-MIC passaging): 16 fold
- MIC relative to the initial value (S. aureus ATCC 6538; end of the trial (30 days), sub-MIC passaging): 2560 times
